# Measured values published in patent US20210101874A1, “MICROBIOCIDAL OXADIAZOLE DERIVATIVES” (SYNGENTA PARTICIPATIONS AG, priority 2017, published 2021).
# Legend:
# [1] = system: Puccinia recondita f. sp. Tritici; experiment: Puccinia recondita f. sp. tritici / wheat / leaf disc preventative (brown rust); format: in vivo; conditions: foliar, 200 ppm in the applied formulation, wheat leaf segments cv. Kanzler, inoculated 1 day after application, compared to untreated, assessed 7 to 9 days after application, read-out: disease control
# Experimental: Leaf disks or leaf segments of various plant species are cut from plants grown in a greenhouse. The cut leaf disks or segments are placed in multiwell plates (24-well format) onto water agar. The leaf disks are sprayed with a test solution before (preventative) or after (curative) inoculation. Compounds to be tested are prepared as DMSO solutions (max. 10 mg/ml) which are diluted to the appropriate concentration with 0.025% Tween20 just before spraying. The inoculated leaf disks or segments are incubated under defined conditions (temperature, relative humidity, light, etc.) according to the respective test system. A single evaluation of disease level is carried out 3 to 14 days after inoculation, depending on the pathosystem. Percent disease control relative to the untreated check leaf disks or segments is then calculated. Wheat leaf segments cv. Kanzler were placed on agar in multiwell plates (24-well format) and sprayed with the formulated test compound diluted in water. The leaf disks were inoculated with a spore suspension of the fungus 1 day after application. The inoculated leaf segments were incubated at 19° C. and 75% relative humidity (rh) under a light regime of 12 hours light/12 hours darkness in a climate cabinet and the activity of a compound was assessed as percent disease control compared to untreated when an appropriate level of disease damage appears in untreated check leaf segments (7 to 9 days after application). The following compounds at 200 ppm in the applied formulation give at least 80% disease control in this test when compared to untreated control leaf disks under the same conditions, which show extensive disease development.
# [2] = system: Glomerella lagenarium (Colletotrichum lagenarium); experiment: Glomerella lagenarium (Colletotrichum lagenarium) liquid culture / cucumber / preventative (anthracnose); format: cell-based; conditions: Colletotrichum orbiculare; 20 ppm in the applied formulation; conidia in PDB nutrient broth, 24° C.; 3 to 4 days after application; compared to untreated; read-out: disease control (inhibition of growth measured photometrically)
# Experimental: Mycelia fragments or conidia suspensions of a fungus prepared either freshly from liquid cultures of the fungus or from cryogenic storage, are directly mixed into nutrient broth. DMSO solutions of the test compound (max. 10 mg/ml) are diluted with 0.025% Tween20 by a factor of 50 and 10 µl of this solution is pipetted into a microtiter plate (96-well format). The nutrient broth containing the fungal spores/mycelia fragments is then added to give an end concentration of the tested compound. The test plates are incubated in the dark at 24° C. and 96% relative humidity. The inhibition of fungal growth is determined photometrically after 2 to 7 days, depending on the pathosystem, and percent antifungal activity relative to the untreated check is calculated. Conidia of the fungus from cryogenic storage are directly mixed into nutrient broth (PDB—potato dextrose broth). After placing a (DMSO) solution of test compound into a microtiter plate (96-well format), the nutrient broth containing the fungal spores is added. The test plates are incubated at 24° C. and the inhibition of growth is measured photometrically 3 to 4 days after application. The following compounds at 20 ppm in the applied formulation give at least 80% disease control in this test when compared to untreated control under the same conditions, which show extensive disease development.
Compound,pest or weed control at 200 ppm [1] [%],inhibition at 20 ppm [2] [%]
"COC(=O)CCS(=O)(=O)N(Cc1ccc(-c2noc(C(F)(F)F)n2)cc1)OC [Compound 1.93, methyl 3-[methoxy-[[4-[5-(trifluoromethyl)-1,2,4-oxadiazol-3-yl]phenyl]methyl]sulfamoyl]propanoate]",≥ 80,≥ 80
"CCNS(=O)(=O)N(Cc1ccc(-c2noc(C(F)(F)F)n2)cc1)OC [Compound 1.18, 3-[4-[[ethylsulfamoyl (methoxy)amino]methyl]phenyl]-5-(trifluoromethyl)-1,2,4-oxadiazole]",≥ 80,≥ 80
"CC(C)S(=O)(=O)N(C)Cc1ccc(-c2noc(C(F)(F)F)n2)cc1 [Compound 1.54, N-methyl-N-[[4-[5-(trifluoromethyl)-1,2,4-oxadiazol-3-yl]phenyl]methyl] propane-2-sulfonamide]",≥ 80,≥ 80
"CCCCS(=O)(=O)NCc1ccc(-c2noc(C(F)(F)F)n2)cc1 [Compound 2.12, N-[[4-[5-(trifluoromethyl)-1,2,4-oxadiazol-3-yl]phenyl]methyl] butane-1-sulfonamide]",≥ 80,≥ 80
"CCCN(Cc1ccc(-c2noc(C(F)(F)F)n2)cc1)S(=O)(=O)N1CCCC1 [Compound 1.68, N-propyl-N-[[4-[5-(trifluoromethyl)-1,2,4-oxadiazol-3-yl]phenyl]methyl] pyrrolidine-1-sulfonamide]",≥ 80,≥ 80
"O=S(=O)(CC1CC1(Cl)Cl)NCc1ccc(-c2noc(C(F)(F)F)n2)c(F)c1 (stereo not shown) [Compound 3.16, 1-(2,2-dichlorocyclopropyl)-N-[[3-fluoro-4-[5-(trifluoromethyl)-1,2,4-oxadiazol-3-yl]phenyl]methyl] methanesulfonamide]",≥ 80,≥ 80
"O=S(=O)(NCc1ccc(-c2noc(C(F)(F)F)n2)c(F)c1)c1ccccc1 [Compound 3.9, N-[[3-fluoro-4-[5-(trifluoromethyl)-1,2,4-oxadiazol-3-yl]phenyl]methyl] benzenesulfonamide]",≥ 80,≥ 80
"CCCNS(=O)(=O)N(Cc1ccc(-c2noc(C(F)(F)F)n2)cc1)OC [Compound 1.22, 3-[4-[[methoxy (propylsulfamoyl)amino]methyl]phenyl]-5-(trifluoromethyl)-1,2,4-oxadiazole]",≥ 80,≥ 80
"C/C=C/S(=O)(=O)NCc1ccc(-c2noc(C(F)(F)F)n2)cc1 [Compound 2.10, (E)-N-[[4-[5-(trifluoromethyl)-1,2,4-oxadiazol-3-yl]phenyl]methyl] prop-1-ene-1-sulfonamide]",≥ 80,≥ 80
"COC(=O)CS(=O)(=O)N(C)Cc1ccc(-c2noc(C(F)(F)F)n2)cc1 [Compound 1.53, methyl 2-[methyl-[[4-[5-(trifluoromethyl)-1,2,4-oxadiazol-3-yl]phenyl]methyl]sulfamoyl]acetate]",≥ 80,≥ 80
"CCCN(Cc1ccc(-c2noc(C(F)(F)F)n2)cc1)S(=O)(=O)c1ccn(C)n1 [Compound 1.65, 1-methyl-N-propyl-N-[[4-[5-(trifluoromethyl)-1,2,4-oxadiazol-3-yl]phenyl]methyl] pyrazole-3-sulfonamide]",≥ 80,≥ 80
"CCN(Cc1ccc(-c2noc(C(F)(F)F)n2)cc1)S(=O)(=O)CCC(=O)OC [Compound 1.36, methyl 3-[ethyl-[[4-[5-(trifluoromethyl)-1,2,4-oxadiazol-3-yl]phenyl]methyl]sulfamoyl]propanoate]",≥ 80,≥ 80
"O=S(=O)(CC1CC1(Cl)Cl)NCc1ccc(-c2noc(C(F)(F)F)n2)cc1 (stereo not shown) [Compound 3.12, 1-(2,2-dichlorocyclopropyl)-N-[[4-[5-(trifluoromethyl)-1,2,4-oxadiazol-3-yl]phenyl]methyl] methanesulfonamide]",≥ 80,≥ 80
"COC(=O)CS(=O)(=O)NCc1ccc(-c2noc(C(F)(F)F)n2)cc1F [Compound 2.37, methyl 2-[[2-fluoro-4-[5-(trifluoromethyl)-1,2,4-oxadiazol-3-yl]phenyl]methyl-sulfamoyl] acetate]",≥ 80,≥ 80
"CCN(Cc1ccc(-c2noc(C(F)(F)F)n2)cc1)S(=O)(=O)N1CCCC1 [Compound 1.32, N-ethyl-N-[[4-[5-(trifluoromethyl)-1,2,4-oxadiazol-3-yl]phenyl]methyl] pyrrolidine-1-sulfonamide]",≥ 80,≥ 80
"CCCN(Cc1ccc(-c2noc(C(F)(F)F)n2)cc1)S(=O)(=O)CC1CCOC1 (stereo not shown) [Compound 1.71, N-propyl-1-tetrahydrofuran-3-yl-N-[[4-[5-(trifluoromethyl)-1,2,4-oxadiazol-3-yl]phenyl]methyl] methanesulfonamide]",≥ 80,≥ 80
"CN(Cc1ccc(-c2noc(C(F)(F)F)n2)cc1)S(=O)(=O)N1CCCC1 [Compound 1.44, N-methyl-N-[[4-[5-(trifluoromethyl)-1,2,4-oxadiazol-3-yl]phenyl]methyl] pyrrolidine-1-sulfonamide]",≥ 80,≥ 80
"CCCCS(=O)(=O)NCc1ccc(-c2noc(C(F)(F)F)n2)c(F)c1 [Compound 2.22, N-[[3-fluoro-4-[5-(trifluoromethyl)-1,2,4-oxadiazol-3-yl]phenyl]methyl] butane-1-sulfonamide]",≥ 80,≥ 80
"O=S(=O)(CCC(F)(F)F)NCc1ccc(-c2noc(C(F)(F)F)n2)c(F)c1 [Compound 2.18, 3,3,3-trifluoro-N-[[3-fluoro-4-[5-(trifluoromethyl)-1,2,4-oxadiazol-3-yl]phenyl]methyl] propane-1-sulfonamide]",≥ 80,≥ 80
"CCCN(Cc1ccc(-c2noc(C(F)(F)F)n2)cc1)S(=O)(=O)NC [Compound 1.80, 3-[4-[[methylsulfamoyl (propyl)amino]methyl]phenyl]-5-(trifluoromethyl)-1,2,4-oxadiazole]",≥ 80,≥ 80
"COC(=O)CCS(=O)(=O)NCc1ccc(-c2noc(C(F)(F)F)n2)cc1F [Compound 2.33, methyl 3-[[2-fluoro-4-[5-(trifluoromethyl)-1,2,4-oxadiazol-3-yl]phenyl]methyl-sulfamoyl] propanoate]",≥ 80,≥ 80
"CCN(Cc1ccc(-c2noc(C(F)(F)F)n2)cc1)S(=O)(=O)Cc1ccccc1 [Compound 1.60, N-ethyl-1-phenyl-N-[[4-[5-(trifluoromethyl)-1,2,4-oxadiazol-3-yl]phenyl]methyl] methanesulfonamide]",≥ 80,≥ 80
"Cc1ccc(S(=O)(=O)NCc2ccc(-c3noc(C(F)(F)F)n3)cc2)s1 [Compound 3.11, 5-methyl-N-[[4-[5-(trifluoromethyl)-1,2,4-oxadiazol-3-yl]phenyl]methyl] thiophene-2-sulfonamide]",≥ 80,≥ 80
